Test results published in patent publication US20240124427A1, “HYDROXYHETEROCYCLOALKANE-CARBAMOYL DERIVATIVES” (Idorsia Pharmaceuticals Ltd, priority 2021, published 2024).

biological target: human Gal-3 (hGal-3) (Homo sapiens (Human), UniProt P17931); assay: Competitive binding assay: biotinylated hGal-3 binding to microplate-adsorbed asialofetuin (ASF); settings: Activity on hGal-3; mean values of several measurements; mixture of diastereomers measured where not separated
Outline: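 Spectrophotometric read-out using streptavidin-peroxidase and ABTS quantifies how much biotin-hGal-3 remains bound to microplate asialofetuin after 3 h at 4 °C with compound present. Values are means of repeated IC50 determinations.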

Sequence of human Gal-3 (hGal-3) (P17931 whole entry): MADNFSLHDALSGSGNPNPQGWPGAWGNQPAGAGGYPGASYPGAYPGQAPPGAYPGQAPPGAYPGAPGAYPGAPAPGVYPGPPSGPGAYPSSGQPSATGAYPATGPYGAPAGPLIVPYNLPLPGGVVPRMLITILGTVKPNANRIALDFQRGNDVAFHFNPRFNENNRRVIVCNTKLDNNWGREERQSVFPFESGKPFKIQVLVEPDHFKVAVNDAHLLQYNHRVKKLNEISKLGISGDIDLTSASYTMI

First: CO[C@@H]1[C@@H](n2cc(-c3cc(F)c(Cl)c(F)c3)nn2)[C@@H](O)[C@@H](CO)O[C@H]1C(=O)N(c1cc(C)cc(Br)c1)[C@H]1CN(C(C)=O)C[C@@H]1O [Example 76, (2R,3R,4S,5R,6R)-N-((3S,4S)-1-acetyl-4-hydroxypyrrolidin-3-yl)-N-(3-bromo-5-methylphenyl)-4-(4-(4-chloro-3,5-difluorophenyl)-1H-1,2,3-triazol-1-yl)-5-hydroxy-6-(hydroxymethyl)-3-methoxytetrahydro-2H-pyran-2-carboxamide]
Second: CO[C@@H]1[C@@H](n2cc(-c3cc(F)c(Cl)c(F)c3)nn2)[C@@H](O)[C@@H](CO)O[C@H]1C(=O)N(c1cc(C)cc(Br)c1)[C@@H]1CN(C(C)=O)C[C@H]1O [Example 83, (2R,3R,4S,5R,6R)-N-((3R,4R)-1-acetyl-4-hydroxypyrrolidin-3-yl)-N-(3-bromo-5-methylphenyl)-4-(4-(4-chloro-3,5-difluorophenyl)-1H-1,2,3-triazol-1-yl)-5-hydroxy-6-(hydroxymethyl)-3-methoxytetrahydro-2H-pyran-2-carboxamide]
The IC50 of the first is 1.8-fold lower: 37 nM for the first, 67 nM for the second. The first is the more potent here.

`CO[C@@H]1[C@@H](n2cc(-c3cc(F)c(F)c(F)c3)nn2)[C@@H](O)[C@@H](CO)O[C@H]1C(=O)N(c1cc(Cl)cc(Cl)c1)[C@@H]1CN(C(C)=O)C[C@H]1O` [Example 77, (2R,3R,4S,5R,6R)-N-((3R,4R)-1-acetyl-4-hydroxypyrrolidin-3-yl)-N-(3,5-dichlorophenyl)-5-hydroxy-6-(hydroxymethyl)-3-methoxy-4-(4-(3,4,5-trifluorophenyl)-1H-1,2,3-triazol-1-yl)tetrahydro-2H-pyran-2-carboxamide] and `CO[C@@H]1[C@@H](n2cc(-c3cc(F)c(F)c(F)c3)nn2)[C@@H](O)[C@@H](CO)O[C@H]1C(=O)N(c1cc(C)cc(Br)c1)[C@@H]1CN(C(C)=O)C[C@H]1O` [Example 79, (2R,3R,4S,5R,6R)-N-((3R,4R)-1-acetyl-4-hydroxypyrrolidin-3-yl)-N-(3-bromo-5-methylphenyl)-5-hydroxy-6-(hydroxymethyl)-3-methoxy-4-(4-(3,4,5-trifluorophenyl)-1H-1,2,3-triazol-1-yl)tetrahydro-2H-pyran-2-carboxamide] are within 1.5-fold of each other in IC50: 80 nM for the first, 76 nM for the second.

First: CO[C@@H]1[C@@H](n2cc(-c3cc(F)c(F)c(F)c3)nn2)[C@@H](O)[C@@H](CO)O[C@H]1C(=O)N(c1cc(Br)cc(C#N)c1)[C@@H]1CN(C(C)=O)C[C@H]1O [Example 78, (2R,3R,4S,5R,6R)-N-((3R,4R)-1-acetyl-4-hydroxypyrrolidin-3-yl)-N-(3-bromo-5-cyanophenyl)-5-hydroxy-6-(hydroxymethyl)-3-methoxy-4-(4-(3,4,5-trifluorophenyl)-1H-1,2,3-triazol-1-yl)tetrahydro-2H-pyran-2-carboxamide]
Second: CO[C@@H]1[C@@H](n2cc(-c3cc(F)c(F)c(F)c3)nn2)[C@@H](O)[C@@H](CO)O[C@H]1C(=O)N(c1cc(Br)cc(C#N)c1)[C@H]1CN(C=O)C[C@@H]1O [Example 89, (2R,3R,4S,5R,6R)-N-(3-bromo-5-cyanophenyl)-N-((3S,4S)-1-formyl-4-hydroxypyrrolidin-3-yl)-5-hydroxy-6-(hydroxymethyl)-3-methoxy-4-(4-(3,4,5-trifluorophenyl)-1H-1,2,3-triazol-1-yl)tetrahydro-2H-pyran-2-carboxamide]
The IC50 of the first is 1.9-fold higher: 71 nM for the first, 38 nM for the second. The second is the more potent here.

First: CO[C@@H]1[C@@H](n2cc(-c3ccc(Br)c(F)c3F)nn2)[C@@H](O)[C@@H](CO)O[C@H]1C(=O)N(c1cc(Cl)cc(Cl)c1)[C@@H]1CN(C(C)=O)C[C@H]1O [Example 80, (2R,3R,4S,5R,6R)-N-((3R,4R)-1-acetyl-4-hydroxypyrrolidin-3-yl)-4-(4-(4-bromo-2,3-difluorophenyl)-1H-1,2,3-triazol-1-yl)-N-(3,5-dichlorophenyl)-5-hydroxy-6-(hydroxymethyl)-3-methoxytetrahydro-2H-pyran-2-carboxamide]
Second: CO[C@@H]1[C@@H](n2cc(-c3ccc(Br)c(F)c3F)nn2)[C@@H](O)[C@@H](CO)O[C@H]1C(=O)N(c1cc(Cl)cc(Cl)c1)[C@H]1CN(C=O)C[C@@H]1O [Example 91, (2R,3R,4S,5R,6R)-4-(4-(4-bromo-2,3-difluorophenyl)-1H-1,2,3-triazol-1-yl)-N-(3,5-dichlorophenyl)-N-((3S,4S)-1-formyl-4-hydroxypyrrolidin-3-yl)-5-hydroxy-6-(hydroxymethyl)-3-methoxytetrahydro-2H-pyran-2-carboxamide]
The IC50 of the first is 1.6-fold higher: 31 nM for the first, 20 nM for the second.

`CO[C@@H]1[C@@H](n2cc(-c3cc(F)c(C)c(F)c3)nn2)[C@@H](O)[C@@H](CO)O[C@H]1C(=O)N(c1cc(Br)cc(Br)c1)[C@@H]1CN(C(C)=O)C[C@H]1O` [Example 81, (2R,3R,4S,5R,6R)-N-((3R,4R)-1-acetyl-4-hydroxypyrrolidin-3-yl)-N-(3,5-dibromophenyl)-4-(4-(3,5-difluoro-4-methylphenyl)-1H-1,2,3-triazol-1-yl)-5-hydroxy-6-(hydroxymethyl)-3-methoxytetrahydro-2H-pyran-2-carboxamide] and `CO[C@@H]1[C@@H](n2cc(-c3cc(F)c(C)c(F)c3)nn2)[C@@H](O)[C@@H](CO)O[C@H]1C(=O)N(c1cc(C)cc(Br)c1)[C@@H]1CN(C(C)=O)C[C@H]1O` [Example 82, (2R,3R,4S,5R,6R)-N-((3R,4R)-1-acetyl-4-hydroxypyrrolidin-3-yl)-N-(3-bromo-5-methylphenyl)-4-(4-(3,5-difluoro-4-methylphenyl)-1H-1,2,3-triazol-1-yl)-5-hydroxy-6-(hydroxymethyl)-3-methoxytetrahydro-2H-pyran-2-carboxamide] are within 1.5-fold of each other in IC50: 40 nM for the first, 45 nM for the second.

Going from `CO[C@@H]1[C@@H](n2cc(-c3cc(F)c(F)c(F)c3)nn2)[C@@H](O)[C@@H](CO)O[C@H]1C(=O)N(c1cc(C)cc(Br)c1)[C@H]1CN(C=O)C[C@@H]1O` [Example 90, (2R,3R,4S,5R,6R)-N-(3-bromo-5-methylphenyl)-N-((3S,4S)-1-formyl-4-hydroxypyrrolidin-3-yl)-5-hydroxy-6-(hydroxymethyl)-3-methoxy-4-(4-(3,4,5-trifluorophenyl)-1H-1,2,3-triazol-1-yl)tetrahydro-2H-pyran-2-carboxamide] to `CO[C@@H]1[C@@H](n2cc(-c3cc(F)c(F)c(F)c3)nn2)[C@@H](O)[C@@H](CO)O[C@H]1C(=O)N(c1cc(C)cc(Br)c1)[C@@H]1CN(C=O)C[C@H]1O` [Example 94, (2R,3R,4S,5R,6R)-N-(3-bromo-5-methylphenyl)-N-((3R,4R)-1-formyl-4-hydroxypyrrolidin-3-yl)-5-hydroxy-6-(hydroxymethyl)-3-methoxy-4-(4-(3,4,5-trifluorophenyl)-1H-1,2,3-triazol-1-yl)tetrahydro-2H-pyran-2-carboxamide], the IC50 rises from 20 nM to 86 nM (4.3-fold). The first is the more potent here.

First: CO[C@@H]1[C@@H](n2cc(-c3ccc(C)c(F)c3F)nn2)[C@@H](O)[C@@H](CO)O[C@H]1C(=O)N(c1cc(C)cc(Br)c1)[C@H]1CN(C=O)C[C@@H]1O [Example 92, (2R,3R,4S,5R,6R)-N-(3-bromo-5-methylphenyl)-4-(4-(2,3-difluoro-4-methylphenyl)-1H-1,2,3-triazol-1-yl)-N-((3S,4S)-1-formyl-4-hydroxypyrrolidin-3-yl)-5-hydroxy-6-(hydroxymethyl)-3-methoxytetrahydro-2H-pyran-2-carboxamide]
Second: CO[C@@H]1[C@@H](n2cc(-c3ccc(C)c(F)c3F)nn2)[C@@H](O)[C@@H](CO)O[C@H]1C(=O)N(c1cc(C)cc(Br)c1)[C@@H]1CN(C=O)C[C@H]1O [Example 95, (2R,3R,4S,5R,6R)-N-(3-bromo-5-methylphenyl)-4-(4-(2,3-difluoro-4-methylphenyl)-1H-1,2,3-triazol-1-yl)-N-((3R,4R)-1-formyl-4-hydroxypyrrolidin-3-yl)-5-hydroxy-6-(hydroxymethyl)-3-methoxytetrahydro-2H-pyran-2-carboxamide]
The IC50 of the first is 2.1-fold lower: 19 nM for the first, 40 nM for the second. The first is the more potent here.

First: CO[C@@H]1[C@@H](n2cc(-c3cc(F)c(F)c(F)c3)nn2)[C@@H](O)[C@@H](CO)O[C@H]1C(=O)N(c1cc(Br)cc(C#N)c1)[C@@H]1CN(C=O)C[C@H]1O [Example 93, (2R,3R,4S,5R,6R)-N-(3-bromo-5-cyanophenyl)-N-((3R,4R)-1-formyl-4-hydroxypyrrolidin-3-yl)-5-hydroxy-6-(hydroxymethyl)-3-methoxy-4-(4-(3,4,5-trifluorophenyl)-1H-1,2,3-triazol-1-yl)tetrahydro-2H-pyran-2-carboxamide]
Second: CO[C@@H]1[C@@H](n2cc(-c3cc(F)c(F)c(F)c3)nn2)[C@@H](O)[C@@H](CO)O[C@H]1C(=O)N(c1cc(C)cc(Br)c1)[C@H]1CN(C)C[C@@H]1O [Example 96, (2R,3R,4S,5R,6R)-N-(3-bromo-5-methylphenyl)-5-hydroxy-N-((3S,4S)-4-hydroxy-1-methylpyrrolidin-3-yl)-6-(hydroxymethyl)-3-methoxy-4-(4-(3,4,5-trifluorophenyl)-1H-1,2,3-triazol-1-yl)tetrahydro-2H-pyran-2-carboxamide]
The IC50 of the first is 1.6-fold higher: 80 nM for the first, 51 nM for the second. The second is the more potent here.

`CCN1C[C@H](O)[C@@H](N(C(=O)[C@@H]2O[C@H](CO)[C@H](O)[C@H](n3cc(-c4cc(F)c(F)c(F)c4)nn3)[C@H]2OC)c2cc(C)cc(Br)c2)C1` [Example 97, (2R,3R,4S,5R,6R)-N-(3-bromo-5-methylphenyl)-N-((3S,4S)-1-ethyl-4-hydroxypyrrolidin-3-yl)-5-hydroxy-6-(hydroxymethyl)-3-methoxy-4-(4-(3,4,5-trifluorophenyl)-1H-1,2,3-triazol-1-yl)tetrahydro-2H-pyran-2-carboxamide] and `CO[C@@H]1[C@@H](n2cc(-c3cc(F)c(F)c(F)c3)nn2)[C@@H](O)[C@@H](CO)O[C@H]1C(=O)N(c1cc(C)cc(Br)c1)[C@H]1CN(S(C)(=O)=O)C[C@@H]1O` [Example 98, (2R,3R,4S,5R,6R)-N-(3-bromo-5-methylphenyl)-5-hydroxy-N-((3S,4S)-4-hydroxy-1-(methylsulfonyl)pyrrolidin-3-yl)-6-(hydroxymethyl)-3-methoxy-4-(4-(3,4,5-trifluorophenyl)-1H-1,2,3-triazol-1-yl)tetrahydro-2H-pyran-2-carboxamide] are within 1.5-fold of each other in IC50: 24 nM for the first, 29 nM for the second.
